Key:
CCRF/CEM cells [1] = test: MTT assay (mitochondrial activity), CCRF/CEM; format: cell-based; conditions: Homo sapiens
Description: (§1) The anticancer activity of tested compounds was assessed on five human cell lines selected from the panel of tumor cell lines recommended by the National Cancer Institute: A495 (lung carcinoma), CCRF/CEM (acute lymphoblastic leukemia), LoVo and LoVo/DX (two types of colorectal: non-resistant and resistant to doxorubicin), and MCF-7 (breast adenocarcinoma). In addition, the NHDF cell line (normal human dermal fibroblasts) was used to estimate cytotoxicity to noncancer cells. The A549, CCRF/CEM, LoVo, LoVo/DX, and MCF-7 cells were obtained from ECACC, and NHDF cells from LONZA, Belgium. The A549 and MCF-7 cells were grown in EMEM medium, CCRF/CEM cells in RPMI-1640, LoVo and LoVo/DX cells in DMEM/F-12, and NHDF cells in DMEM without phenol red. The cells were seeded in […] in the biological assay, as recommended by the National Cancer Institute. All culture media were supplemented with L-glutamine, penicillin, streptomycin, and 10% fetal bovine serum (FBS). Cells were incubated at 37 °C and 5% CO2. An assessment of the mitochondrial cell activity after applying tested compounds was carried out using the test MTT assay, recommended in the ISO 10993-5:2009 standard. As in the SRB assay, the cells were exposed to tested compounds after 24 h of initial incubation in 96-well plates. The MTT solution (1 mg/mL) was added to each well, and cells were incubated for 2 h. Finally, the supernatant was removed, and the formazan crystals were dissolved in isopropanol. After 30 min, absorbance at 570 nm in Victor2 microplate reader (PerkinElmer). Cell viability was determined as the IC50 ratio, i.e., the concentration of the compound in which the viability was reduced by half compared with the control.

CCRF/CEM cells [2] = test: SRB assay (total protein content), CCRF/CEM; format: cell-based; conditions: Homo sapiens, 48 h incubation
Description: (§2) The anticancer activity of tested compounds was assessed on five human cell lines selected from the panel of tumor cell lines recommended by the National Cancer Institute: A495 (lung carcinoma), CCRF/CEM (acute lymphoblastic leukemia), LoVo and LoVo/DX (two types of colorectal: non-resistant and resistant to doxorubicin), and MCF-7 (breast adenocarcinoma). In addition, the NHDF cell line (normal human dermal fibroblasts) was used to estimate cytotoxicity to noncancer cells. The A549, CCRF/CEM, LoVo, LoVo/DX, and MCF-7 cells were obtained from ECACC, and NHDF cells from LONZA, Belgium. The A549 and MCF-7 cells were grown in EMEM medium, CCRF/CEM cells in RPMI-1640, LoVo and LoVo/DX cells in DMEM/F-12, and NHDF cells in DMEM without phenol red. The cells were seeded in […] in the biological assay, as recommended by the National Cancer Institute. All culture media were supplemented with L-glutamine, penicillin, streptomycin, and 10% fetal bovine serum (FBS). Cells were incubated at 37 °C and 5% CO2. One of the most popular in vitro tests to evaluate the activity of compounds with potential antitumor activity is the SRB assay. The sulforhodamine B dye is used, which binds to the protein at the appropriate pH. The assay allows for assessing cell mass and, indirectly, their proliferation. The advantage of the assay is that it measures cellular protein content and not the activity of any enzymes. The SRB assay was carried out according to the National Cancer Institute procedure. Cells were incubated in a culture medium for 24 h in 96-well plates. After 24 h, the control plate for each cell line was fixed with TCA to evaluate cell culture before treatment with tested compounds. […] Cell cultures were then fixed by adding 50% TCA at 4 °C for 1 h. After removing the supernatant, the plates were washed with water and dried. […] Growth inhibition was calculated following the NCI guidelines and expressed as the GI50 ratio, i.e., the concentration of the compound in which the amount of protein was reduced by half compared with the control.

LoVo cells [3] = test: SRB assay (total protein content), LoVo; format: cell-based; conditions: Homo sapiens, 48 h incubation
Description: as §2

LoVo/DX cells [4] = test: SRB assay (total protein content), LoVo/DX; format: cell-based; conditions: Homo sapiens, LoVo/DX cells (doxorubicin-resistant), 48 h incubation
Description: as §2

LoVo cells [5] = test: MTT assay (mitochondrial activity), LoVo; format: cell-based; conditions: Homo sapiens
Description: as §1

LoVo/DX cells [6] = test: MTT assay (mitochondrial activity), LoVo/DX; format: cell-based; conditions: Homo sapiens, LoVo/DX cells (doxorubicin-resistant)
Description: as §1

MCF-7 cells [7] = test: MTT assay (mitochondrial activity), MCF-7; format: cell-based; conditions: Homo sapiens, MCF7
Description: as §1

NHDF cells [8] = test: MTT assay (mitochondrial activity), NHDF; format: cell-based; conditions: Homo sapiens, NHDF normal cells
Description: as §1

NHDF cells [9] = test: SRB assay (total protein content), NHDF; format: cell-based; conditions: Homo sapiens, NHDF normal cells, 48 h incubation
Description: as §2

MCF-7 cells [10] = test: SRB assay (total protein content), MCF-7; format: cell-based; conditions: Homo sapiens, MCF7, 48 h incubation
Description: as §2

A549 cells [11] = test: MTT assay (mitochondrial activity), A549; format: cell-based; conditions: Homo sapiens
Description: as §1

A549 cells [12] = test: Proton pump blocking test (omeprazole) for lysosomal exocytosis; format: cell-based, human; conditions: 200 µM for 1 h before test compounds
Description: To assess whether the exocytosis of olivacine and ellipticine from cancer cells is lysosomal, a proton pump blocking test was performed. Omeprazole was added into A549 cells at a concentration of 200 µM for 1 h. The cell culture was then washed twice with PBS, and the cells were treated with tested compounds. The cell culture was assessed using an Evos FL microscope. The lysosomes were stained using LysoTracker™ Deep Red kit (L12492; Invitrogen). Cultured cells were evaluated using an Evos FL microscope, taking photos every 15 min. After treatment with olivacine or olivacine and omeprazole, analysis of mean cell fluorescence was performed from five independent replicates. In addition, 14 pictures were taken from each replicate, and 100 cells were analyzed by photomicrography using the ImageJ platform.

Row | IC50 (CCRF/CEM cells [1]) | GI50 (CCRF/CEM cells [2]) | GI50 (LoVo cells [3]) | GI50 (LoVo/DX cells [4]) | IC50 (LoVo cells [5]) | IC50 (LoVo/DX cells [6]) | IC50 (MCF-7 cells [7]) | GI50 (MCF-7 cells [10]) | IC50 (A549 cells [11]) | SMILES | IC50 (NHDF cells [8]) | GI50 (NHDF cells [9]) | effect on exocytosis of olivacine and ellipticine (A549 cells [12])
1 | 1.03 ± 0.02 µM | 0.74 ± 0.02 µM | 1.62 ± 0.45 µM | 14.1 ± 3.42 µM | 10.2 ± 1.27 µM | 86.4 ± 25.4 µM | 4.33 ± 0.55 µM | 1.44 ± 0.23 µM | 13.8 ± 1.03 µM | COc1cccc2c1C(=O)c1c(O)c3c(c(O)c1C2=O)C[C@@](O)(C(=O)CO)C[C@@H]3O[C@H]1C[C@H](N)[C@H](O)[C@H](C)O1 [Doxorubicin] | 18.2 ± 4.46 µM | 13.7 ± 5.29 µM | –
2 | – | – | – | – | – | – | – | – | – | COc1ccc2[nH]c([S+]([O-])Cc3ncc(C)c(OC)c3C)nc2c1 (stereo not drawn) [Omeprazole] | – | – | protect against exocytosis

Reference: publication PMC9181543, “Lysosomal Exocytosis of Olivacine on the Way to Explain Drug Resistance in Cancer Cells” (International Journal of Molecular Sciences, 2022)
